Columns and labels:
Assay in all cases: Eurofins kinase enzymatic radiometric assay
Assay type in all cases: biochemical
Parameters in all cases: purchased Eurofins
Details in all cases: Km of ATP, 9-point curve in duplicate
[1] = biological target: AURKC (Homo sapiens, UniProt Q9UQB9)
From the text: (§1) Due to our interest in the activity of GW296115 on several understudied IDG kinases, we collected full dose–response curves for all wild type kinases inhibited ≥ 75% in the DiscoverX panel that were offered by Eurofins. Having data in orthogonal formats is a powerful way to confirm inhibitory activity and adds rigor to our results. Eurofins has kinase enzymatic radiometric assays for 35 of the kinases on this list (Table S2) and a kinase enzymatic LANCE assay for one additional kinase (MAP2K5/MEK5).
(§2) Eurofins kinase enzymatic radiometric assays were carried out at the Km of ATP in dose–response (9-pt curve in duplicate) for each kinase for which it was offered.

[2] = biological target: AXL (Homo sapiens, UniProt P30530)
From the text: as §1, §2

[3] = biological target: T1, BRSK2 (Homo sapiens, UniProt Q8IWQ3)
T1 sequence (Q8IWQ3 1-736): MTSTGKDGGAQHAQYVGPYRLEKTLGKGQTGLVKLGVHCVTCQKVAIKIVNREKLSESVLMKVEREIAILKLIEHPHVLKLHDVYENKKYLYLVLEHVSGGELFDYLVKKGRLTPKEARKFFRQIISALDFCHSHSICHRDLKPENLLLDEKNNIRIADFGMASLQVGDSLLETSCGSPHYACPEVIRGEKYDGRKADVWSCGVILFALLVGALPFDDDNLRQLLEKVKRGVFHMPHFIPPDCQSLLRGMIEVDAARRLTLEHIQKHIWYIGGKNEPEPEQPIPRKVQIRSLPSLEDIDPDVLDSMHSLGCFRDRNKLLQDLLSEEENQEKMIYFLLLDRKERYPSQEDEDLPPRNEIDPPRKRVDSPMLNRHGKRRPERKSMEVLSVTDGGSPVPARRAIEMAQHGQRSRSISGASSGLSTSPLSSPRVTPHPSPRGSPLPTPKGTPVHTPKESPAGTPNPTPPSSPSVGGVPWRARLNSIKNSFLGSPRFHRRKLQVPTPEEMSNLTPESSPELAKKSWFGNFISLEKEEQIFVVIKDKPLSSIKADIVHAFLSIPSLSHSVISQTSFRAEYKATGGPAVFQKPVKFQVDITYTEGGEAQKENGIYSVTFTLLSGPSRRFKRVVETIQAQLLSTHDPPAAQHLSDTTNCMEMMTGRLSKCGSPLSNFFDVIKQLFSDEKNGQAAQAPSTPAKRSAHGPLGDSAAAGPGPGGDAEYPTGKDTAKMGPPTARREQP
From the text: as §1, §2

[4] = biological target: DAPK1 (Homo sapiens, UniProt P53355)
DAPK1, sequence (P53355 whole entry): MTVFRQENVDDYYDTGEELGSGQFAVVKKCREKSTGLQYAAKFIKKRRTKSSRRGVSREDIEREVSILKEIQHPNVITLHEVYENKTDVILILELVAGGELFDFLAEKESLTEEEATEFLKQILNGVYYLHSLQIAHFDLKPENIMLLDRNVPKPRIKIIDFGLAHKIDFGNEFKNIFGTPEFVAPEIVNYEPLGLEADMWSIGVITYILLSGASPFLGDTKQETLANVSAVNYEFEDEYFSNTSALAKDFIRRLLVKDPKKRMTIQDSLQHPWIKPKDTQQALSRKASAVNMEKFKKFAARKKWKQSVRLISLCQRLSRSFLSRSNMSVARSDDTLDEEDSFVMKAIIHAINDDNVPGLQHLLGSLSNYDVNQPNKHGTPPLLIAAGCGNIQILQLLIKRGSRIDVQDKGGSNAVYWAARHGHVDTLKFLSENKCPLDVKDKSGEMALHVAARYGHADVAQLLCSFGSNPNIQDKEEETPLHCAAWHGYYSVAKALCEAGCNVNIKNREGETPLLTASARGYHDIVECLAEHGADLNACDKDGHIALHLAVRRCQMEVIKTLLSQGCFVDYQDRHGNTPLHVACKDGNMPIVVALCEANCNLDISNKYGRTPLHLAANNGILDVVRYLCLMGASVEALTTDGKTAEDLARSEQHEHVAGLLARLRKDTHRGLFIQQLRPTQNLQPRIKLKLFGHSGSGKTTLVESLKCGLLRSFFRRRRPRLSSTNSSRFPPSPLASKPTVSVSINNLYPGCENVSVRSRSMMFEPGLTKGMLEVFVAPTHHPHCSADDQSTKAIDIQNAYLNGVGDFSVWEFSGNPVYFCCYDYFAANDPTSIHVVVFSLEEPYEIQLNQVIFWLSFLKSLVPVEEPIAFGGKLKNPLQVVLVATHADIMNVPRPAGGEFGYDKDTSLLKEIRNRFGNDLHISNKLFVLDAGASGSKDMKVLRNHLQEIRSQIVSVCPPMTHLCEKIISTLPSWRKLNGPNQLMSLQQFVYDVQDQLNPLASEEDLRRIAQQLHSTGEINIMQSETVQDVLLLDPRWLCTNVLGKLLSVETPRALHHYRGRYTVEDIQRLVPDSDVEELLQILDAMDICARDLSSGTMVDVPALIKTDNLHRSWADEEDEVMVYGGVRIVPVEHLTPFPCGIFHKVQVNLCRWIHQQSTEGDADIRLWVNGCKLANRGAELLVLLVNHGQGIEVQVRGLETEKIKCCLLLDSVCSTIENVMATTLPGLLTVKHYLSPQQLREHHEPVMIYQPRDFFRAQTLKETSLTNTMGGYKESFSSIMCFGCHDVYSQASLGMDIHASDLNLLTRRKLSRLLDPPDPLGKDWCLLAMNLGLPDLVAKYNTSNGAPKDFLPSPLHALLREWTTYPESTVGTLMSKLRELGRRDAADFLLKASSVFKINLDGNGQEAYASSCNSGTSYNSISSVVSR
From the text: as §1, §2

[5] = biological target: DAPK2 (Homo sapiens, UniProt Q9UIK4)
From the text: as §1, §2

[6] = biological target: DAPK3/ZIPK (Homo sapiens, UniProt O43293)
DAPK3/ZIPK, sequence (O43293 whole entry): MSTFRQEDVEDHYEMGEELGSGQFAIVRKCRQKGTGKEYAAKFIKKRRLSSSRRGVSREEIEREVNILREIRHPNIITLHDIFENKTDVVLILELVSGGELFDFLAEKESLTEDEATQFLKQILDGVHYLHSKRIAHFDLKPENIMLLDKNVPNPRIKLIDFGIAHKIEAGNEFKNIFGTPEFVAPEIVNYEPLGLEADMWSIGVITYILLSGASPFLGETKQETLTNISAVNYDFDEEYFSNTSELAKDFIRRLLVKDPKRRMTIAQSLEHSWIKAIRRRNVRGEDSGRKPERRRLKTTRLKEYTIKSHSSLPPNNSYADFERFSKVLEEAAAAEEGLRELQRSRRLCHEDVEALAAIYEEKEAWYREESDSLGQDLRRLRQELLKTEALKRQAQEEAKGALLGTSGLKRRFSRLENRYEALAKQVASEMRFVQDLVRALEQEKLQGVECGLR
From the text: as §1, §2

[7] = biological target: DCLK3/DCAMKL3 (Homo sapiens, UniProt Q9C098)
From the text: as §1, §2

[8] = biological target: DMPK (Homo sapiens, UniProt Q09013)
DMPK, sequence (Q09013 whole entry): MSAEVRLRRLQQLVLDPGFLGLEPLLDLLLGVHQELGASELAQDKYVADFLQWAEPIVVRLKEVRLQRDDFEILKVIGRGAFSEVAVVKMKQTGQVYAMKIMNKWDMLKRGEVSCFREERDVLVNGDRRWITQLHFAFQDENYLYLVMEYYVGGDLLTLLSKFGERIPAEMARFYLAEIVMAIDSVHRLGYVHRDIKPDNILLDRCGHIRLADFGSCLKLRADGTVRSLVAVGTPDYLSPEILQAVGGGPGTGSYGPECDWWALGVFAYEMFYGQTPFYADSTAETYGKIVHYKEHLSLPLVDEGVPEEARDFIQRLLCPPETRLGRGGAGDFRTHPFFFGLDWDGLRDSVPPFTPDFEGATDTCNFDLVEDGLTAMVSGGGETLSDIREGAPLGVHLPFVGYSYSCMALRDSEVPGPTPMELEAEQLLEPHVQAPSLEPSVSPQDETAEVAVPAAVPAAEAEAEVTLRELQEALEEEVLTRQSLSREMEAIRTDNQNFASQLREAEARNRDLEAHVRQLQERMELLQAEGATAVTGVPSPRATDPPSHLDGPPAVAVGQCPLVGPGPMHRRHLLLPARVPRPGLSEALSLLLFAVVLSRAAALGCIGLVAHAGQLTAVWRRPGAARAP
From the text: as §1, §2

[9] = biological target: FLT3 (Homo sapiens, UniProt P36888)
From the text: as §1, §2

[10] = biological target: LRRK2 (Homo sapiens, UniProt Q5S007)
From the text: as §1, §2

[11] = biological target: MINK1/MINK (Homo sapiens, UniProt Q8N4C8)
MINK1/MINK, sequence (Q8N4C8 whole entry): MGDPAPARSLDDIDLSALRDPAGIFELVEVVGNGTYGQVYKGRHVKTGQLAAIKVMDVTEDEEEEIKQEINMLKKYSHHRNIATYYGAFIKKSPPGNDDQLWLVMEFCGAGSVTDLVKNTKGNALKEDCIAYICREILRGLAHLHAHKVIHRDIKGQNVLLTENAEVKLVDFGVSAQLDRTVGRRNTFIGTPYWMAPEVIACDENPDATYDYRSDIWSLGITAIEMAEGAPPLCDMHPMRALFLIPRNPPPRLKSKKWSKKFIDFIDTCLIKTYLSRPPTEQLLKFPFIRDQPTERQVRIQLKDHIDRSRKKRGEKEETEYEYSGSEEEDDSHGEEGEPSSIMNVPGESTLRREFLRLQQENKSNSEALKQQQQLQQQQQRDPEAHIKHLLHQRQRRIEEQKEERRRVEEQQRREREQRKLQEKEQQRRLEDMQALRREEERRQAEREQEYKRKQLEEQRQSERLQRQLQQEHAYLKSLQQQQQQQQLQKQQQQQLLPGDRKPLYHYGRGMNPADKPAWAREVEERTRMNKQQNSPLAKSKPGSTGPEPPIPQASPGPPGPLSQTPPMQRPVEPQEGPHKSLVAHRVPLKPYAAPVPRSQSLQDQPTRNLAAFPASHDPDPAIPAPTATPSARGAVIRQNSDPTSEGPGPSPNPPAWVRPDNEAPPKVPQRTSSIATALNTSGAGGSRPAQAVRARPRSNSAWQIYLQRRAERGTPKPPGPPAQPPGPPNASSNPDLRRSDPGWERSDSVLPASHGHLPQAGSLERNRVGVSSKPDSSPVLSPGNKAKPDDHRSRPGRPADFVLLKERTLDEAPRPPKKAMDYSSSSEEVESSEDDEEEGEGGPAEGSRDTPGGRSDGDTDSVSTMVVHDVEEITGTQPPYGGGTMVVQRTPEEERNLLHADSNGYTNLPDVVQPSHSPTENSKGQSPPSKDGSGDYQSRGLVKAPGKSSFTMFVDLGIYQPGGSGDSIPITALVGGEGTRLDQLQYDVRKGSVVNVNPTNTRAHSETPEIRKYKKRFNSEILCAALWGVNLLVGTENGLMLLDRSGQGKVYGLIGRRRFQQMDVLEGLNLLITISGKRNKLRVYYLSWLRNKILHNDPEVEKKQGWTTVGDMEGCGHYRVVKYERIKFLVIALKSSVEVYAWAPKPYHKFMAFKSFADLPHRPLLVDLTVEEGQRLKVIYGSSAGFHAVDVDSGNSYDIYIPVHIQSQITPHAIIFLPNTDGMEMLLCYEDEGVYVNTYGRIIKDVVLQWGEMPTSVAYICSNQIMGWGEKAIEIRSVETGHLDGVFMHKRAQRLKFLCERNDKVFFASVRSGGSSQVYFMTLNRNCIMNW
From the text: as §1, §2

[12] = biological target: MYLK/MLCK/smMLCK (Homo sapiens, UniProt Q15746)
From the text: as §1, §2

[13] = biological target: NUAK1/ARK5 (Homo sapiens, UniProt O60285)
From the text: as §1, §2

[14] = biological target: PDGFRB (Homo sapiens, UniProt P09619)
PDGFRB, sequence (P09619 33-1106): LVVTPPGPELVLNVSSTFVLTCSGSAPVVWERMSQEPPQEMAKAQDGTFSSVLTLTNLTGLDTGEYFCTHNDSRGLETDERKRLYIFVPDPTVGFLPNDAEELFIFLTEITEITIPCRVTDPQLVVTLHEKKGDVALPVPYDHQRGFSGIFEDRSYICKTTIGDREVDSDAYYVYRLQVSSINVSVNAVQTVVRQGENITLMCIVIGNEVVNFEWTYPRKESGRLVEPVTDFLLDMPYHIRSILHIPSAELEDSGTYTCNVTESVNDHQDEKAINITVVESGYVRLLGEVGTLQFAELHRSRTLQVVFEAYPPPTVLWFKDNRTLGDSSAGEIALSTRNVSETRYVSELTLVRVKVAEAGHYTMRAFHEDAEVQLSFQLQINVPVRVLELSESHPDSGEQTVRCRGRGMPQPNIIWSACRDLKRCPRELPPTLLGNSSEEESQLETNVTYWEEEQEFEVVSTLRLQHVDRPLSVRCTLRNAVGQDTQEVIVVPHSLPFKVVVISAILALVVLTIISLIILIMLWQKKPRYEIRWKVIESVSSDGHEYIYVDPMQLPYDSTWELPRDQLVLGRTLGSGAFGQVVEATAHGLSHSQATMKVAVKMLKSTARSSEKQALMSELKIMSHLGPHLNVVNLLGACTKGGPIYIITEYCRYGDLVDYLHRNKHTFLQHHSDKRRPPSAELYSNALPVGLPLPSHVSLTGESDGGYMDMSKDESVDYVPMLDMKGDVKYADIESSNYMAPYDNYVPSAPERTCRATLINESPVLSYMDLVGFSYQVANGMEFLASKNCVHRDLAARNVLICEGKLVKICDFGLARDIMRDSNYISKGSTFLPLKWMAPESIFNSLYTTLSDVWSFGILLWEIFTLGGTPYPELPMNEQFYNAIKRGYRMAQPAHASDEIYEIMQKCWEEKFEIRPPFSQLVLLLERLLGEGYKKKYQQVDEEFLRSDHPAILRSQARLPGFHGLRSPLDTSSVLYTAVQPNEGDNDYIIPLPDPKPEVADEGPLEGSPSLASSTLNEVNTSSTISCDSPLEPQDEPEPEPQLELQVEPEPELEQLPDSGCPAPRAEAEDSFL
From the text: as §1, §2

[15] = biological target: PHKG1 (Homo sapiens, UniProt Q16816)
From the text: as §1, §2

[16] = biological target: PIM2 (Homo sapiens, UniProt Q9P1W9)
From the text: as §1, §2

[17] = biological target: PIM3 (Homo sapiens, UniProt Q86V86)
From the text: as §1, §2

[18] = biological target: PRKG2/PKG2 (Homo sapiens, UniProt Q13237)
From the text: as §1, §2

[19] = biological target: SGK3 (Homo sapiens, UniProt Q96BR1)
From the text: as §1, §2

[20] = biological target: T2, STK17B/DRAK2 (Homo sapiens, UniProt O94768)
T2 sequence (O94768 1-372): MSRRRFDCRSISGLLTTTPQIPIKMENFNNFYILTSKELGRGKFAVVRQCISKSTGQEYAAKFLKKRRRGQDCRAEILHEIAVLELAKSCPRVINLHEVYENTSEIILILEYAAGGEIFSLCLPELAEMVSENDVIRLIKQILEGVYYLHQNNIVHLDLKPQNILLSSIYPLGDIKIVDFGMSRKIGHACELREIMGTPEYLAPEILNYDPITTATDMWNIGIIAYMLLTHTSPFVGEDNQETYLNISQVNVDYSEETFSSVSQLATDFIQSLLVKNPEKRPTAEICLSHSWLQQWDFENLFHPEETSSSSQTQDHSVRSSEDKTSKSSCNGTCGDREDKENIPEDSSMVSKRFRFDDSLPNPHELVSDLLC
From the text: as §1, §2

[21] = biological target: STK33 (Homo sapiens, UniProt Q9BYT3)
From the text: as §1, §2

[22] = biological target: TNIK (Homo sapiens, UniProt Q9UKE5)
From the text: as §1, §2

COc1ccc2[nH]c3c4[nH]c5ccc(OC)cc5c4c4c(c3c2c1)C(=O)NC4=O [GW296115]
IC50 [1]: 4.1 µM
IC50 [2]: 0.16 µM
IC50 [3]: 0.0084 µM
IC50 [4]: > 10 µM
IC50 [5]: 0.021 µM
IC50 [6]: 0.1 µM
IC50 [7]: 0.089 µM
IC50 [8]: > 10 µM
IC50 [9]: 0.037 µM
IC50 [10]: 0.025 µM
IC50 [11]: 0.035 µM
IC50 [12]: 0.049 µM
IC50 [13]: 0.015 µM
IC50 [14]: > 10 µM
IC50 [15]: 0.02 µM
IC50 [16]: 0.01 µM
IC50 [17]: 0.089 µM
IC50 [18]: 0.0063 µM
IC50 [19]: > 10 µM
IC50 [20]: 0.0055 µM
IC50 [21]: 0.11 µM
IC50 [22]: 0.01 µM

— article PMC7522982, “PKIS deep dive yields a chemical starting point for dark kinases and a cell active BRSK2 inhibitor” (Scientific Reports, 2020)
